Results published in patent US8933267B2, “Compounds for use as anti-ulcer agent and/or anti-Helicobacter pylori agent and pharmaceutical compositions thereof” (King Saud University, priority 2013, dated 2015).
Converted amounts (≈) assume the structure as drawn. Marks after values point to notes of the source that are not given here.

Key:
[1] = test system: H. pylori clinical isolates KA1-KA7 and ATCC 43504; experiment: Anti-Helicobacter pylori activity, disk diffusion method; type: cell-based; settings: for susceptibility by disc diffusion (in words): all the isolates of H. pylori
Experimental: Clinical isolates were symbolized from KA1 to KA7. Isolates were grown in Brucella agar plates (Difco, Detroit, Mich., USA) containing 10% v/v sheep serum at 37° C. Identification was carried out using Gram stain and catalase, oxidase and urea hydrolysis activities. Helicobacter pylori ATCC 43504 was used as control. Determination of the amino acid-sulfanilamide hybrid activity against H. pylori was carried out using disk diffusion method (McNulty C, Owen R., Tompkins […]., Price A., Smith G. and […]. (2002). Helicobacter pylori susceptibility testing by disc diffusion. Journal of Antimicrobial Chemotherapy, 49: 601-609). The amino acid-sulfanilamide hybrid compound was dissolved in 2% Tween (v/v), in order to obtain final concentration of 2 mg/ml.

[2] = test system: H. pylori clinical isolates KA1-KA7 and ATCC 43504; experiment: Minimum inhibitory concentration (MIC), broth microdilution assay; type: cell-based; settings: Helicobacter pylori
Experimental: A total of seven clinical isolates of H. pylori were isolated from 19 biopsies received from patients diagnosed with gastritis or peptic ulcer disease at Al-Kasr Al-Ainy hospital, Cairo, Egypt. Clinical isolates were symbolized from KA1 to KA7. Isolates were grown in Brucella agar plates (Difco, Detroit, Mich., USA) containing 10% v/v sheep serum at 37° C.
Identification was carried out using Gram stain and catalase, oxidase and urea hydrolysis activities. Helicobacter pylori ATCC 43504 was used as control.
The Minimum inhibitory concentration (MIC) was carried out by the broth microdilution assay (EUCAST, 2003). A total of 100 μL of BHI broth supplemented with 10% defibrinated sheep blood inoculated with 6×10^8 H. pylori (McFarland turbidity standard 2) and 100 μL A of serial dilutions of amino acid-sulfanilamide hybrid compound dissolved in 2% Tween (v/v) was added to each well in the microplate, to reach final concentrations of 12.5; 25; 50; 100; 200; 400 and 800 μg/ml. The microplate was incubated at 37° C. under microaerophilic conditions in an atmosphere of 5-15% O2 and 5-10% CO2, for 48-72 h. After incubation, the plates were visually examined, the optical density was determined at 450 nm and each well was replicated in blood agar (Mueller-Hinton agar with 5% sheep blood), to determine the MIC.

[3] = test system: liver and kidney functions of rats; experiment: Effect on liver and kidney functions; type: in vivo, Male Wister rats; settings: 100 mg/kg orally for 15 days
Experimental: Male Wister rats were divided into 2 equal groups each of 10 rats. The 1st group was left as a control and administrated the vehicle orally, while the 2nd group was orally administrated the synthesized compound in a dose of 100 mg/kg for 15 days. After the examination period, 6 hr after the last dose blood samples were collected from the orbital plexus of rats. Samples were left to clot at room temperature for 30 min then centrifuged at 1000 rpm for 20 min. The collected sera were used for determination of the activity of both (AST) aspirate aminotransferase and (ALT) alanine aminotransferase as liver markers. In addition, levels of blood urea, serum creatinine were also estimated as kidney markers ([…]., Al-Jaber N. A., Moses […]. and Zain M. E. (2013). Antiulcerogenic Activities of the Extracts and Isolated Flavonoids of Euphorbia cuneata Vahl. Phytother. Res. 27: 126-130).

[4] = test system: absolute alcohol-induced ulcer in rats; experiment: Antiulcerogenic activity, absolute ethanol-induced ulcer model; type: in vivo, male Wistar rats
Experimental: Evaluation of the anti-ulcerogenic activity was carried out using absolute ethanol-induced ulcer model (Bighettia A. E., Antonio M. A., Kohna L. K., Rehdera V. L. G., Foglioa M. A., Possentia A., Vilelaa L., Carvalho J. E. (2005). Antiulcerogenic activity of a crude hydroalcoholic extract and coumarin isolated from Mikania laevigata Schultz Bip. Phytomedicine, 12, 72-77). Thirty male Wistar rats were divided into 5 groups each of 6 rats. Group 1 received the vehicle and served as control, group 2 received ranitidine (100 mg/kg) and served as standard, groups 3, 4 and 5 received the synthesized compound at doses 25, 50 and 100 mg/kg respectively.
Rats of all groups were fasted for 24 h then all medications were administered orally. One hour after treatment, the animals received an oral dose of absolute ethanol (1 ml/200 g) and then sacrificed one hour later, by ether inhalation, the stomachs were rapidly removed, opened along their greater curvature and gently rinsed under running tap water.
Number of lesions in the glandular part of the stomach were measured under an illuminated magnifying microscope (10×). Long lesions were counted and their lengths were measured. Petechial lesions were counted, and then each five petechial lesions were taken as 1 mm of ulcer.
The lesion scores: The mucosal lesions were quantified by the scoring system (0-5) 0=no damage, 1=Local edema and inflammation without ulcers; 2=One ulcer without inflammation; 3=one to two ulcers with inflammation & lesion diameter <1 cm; 4=More than two ulcers with lesion diameter 1-2 cm; 5=Sever ulceration with lesion diameter >2 cm (Morris et al., 1989).
Ulcer index: To calculate the ulcer index (mm), the sum of the total length of long ulcers and petechial lesions in each group of rats was divided by its number. The curative ratio was determined according to the formula: % Protection of control ulcer=Control UI−Test UI/Control UI×100

[5] = rat serum, 6 hr after last dose, mean ± SD, n=10

CC1(C)S[C@@H]2[C@H](NC(=O)[C@H](N)c3ccc(O)cc3)C(=O)N2[C@H]1C(=O)O [Amoxicillin, amoxicillin]
Inhibition zone ([1]; H. pylori ATCC 43504, disk (30 μg)): 33 mm | Inhibition zone ([1]; H. pylori KA1, disk (30 μg)): 22 mm | Inhibition zone ([1]; H. pylori KA2, disk (30 μg)): 23 mm | Inhibition zone ([1]; H. pylori KA3, disk (30 μg)): 24 mm | Inhibition zone ([1]; H. pylori KA4, disk (30 μg)): 23 mm | Inhibition zone ([1]; H. pylori KA5, disk (30 μg)): 25 mm | Inhibition zone ([1]; H. pylori KA6, disk (30 μg)): 26 mm | Inhibition zone ([1]; H. pylori KA7, disk (30 μg)): 27 mm | susceptibility by disc diffusion (in words) [1]: sensitive

CC(C)CC(NCC(=O)Nc1ccc(S(N)(=O)=O)cc1)C(=O)O (stereo not shown) [Compound 5, 4-Methyl-2-[2-oxo-2-(4-sulfamoylphenylamino)ethylamino]pentanoic acid]
MIC ([2]; ATCC43504, H. pylori ATCC 43504): 50 µg/mL (≈ 146 µM) | MIC ([2]; ATCC43504, H. pylori KA1): 50 µg/mL (≈ 146 µM) | MIC ([2]; ATCC43504, H. pylori KA2): 50 µg/mL (≈ 146 µM) | MIC ([2]; ATCC43504, H. pylori KA3): 50 µg/mL (≈ 146 µM) | MIC ([2]; ATCC43504, H. pylori KA4): 50 µg/mL (≈ 146 µM) | MIC ([2]; ATCC43504, H. pylori KA5): 50 µg/mL (≈ 146 µM) | MIC ([2]; ATCC43504, H. pylori KA6): 25 µg/mL (≈ 72.8 µM) | MIC ([2]; ATCC43504, H. pylori KA7): 12.5 µg/mL (≈ 36.4 µM) | ALT [3, 5]: 38.67 ± 0.22 U/l | AST [3, 5]: 63.23 ± 0.39 U/l | Creatinine [3, 5]: 0.85 ± 0.02 mg/dL | hepatotoxic manifestation ([3]; rats): didn't reveal hepatotoxic manifestation | nephrotoxic manifestations ([3]; rats): no apparent nephrotoxic manifestations | Blood Urea ([3]; rats, 6 hr after last dose, mean ± SD, n=10): 65.50 ± 1.9 mg/dL | % protection (of control ulcer) ([4]; oral 25 mg/kg): 16.7% | score (lesion score 0-5) ([4]; oral 25 mg/kg): 2.2 | no of ulcers ([4]; oral 25 mg/kg, mean, n=6): 11.1* | % protection (of control ulcer) ([4]; oral 50 mg/kg): 59% | score (lesion score 0-5) ([4]; oral 50 mg/kg): 1.6 | no of ulcers ([4]; oral 50 mg/kg, mean, n=6): 8** | % protection (of control ulcer) ([4]; oral 100 mg/kg): 66.7% | score (lesion score 0-5) ([4]; oral 100 mg/kg): 1.4 | no of ulcers ([4]; oral 100 mg/kg, mean, n=6): 6.2*** | anti-ulcerogenic activity (in words) ([4]; oral 25-100 mg/kg): potent dose dependent anti-ulcerogenic activity | Inhibition zone ([1]; H. pylori ATCC 43504, disk (2 mg)): 16 mm | Inhibition zone ([1]; H. pylori KA1, disk (2 mg)): 18 mm | Inhibition zone ([1]; H. pylori KA2, disk (2 mg)): 15 mm | Inhibition zone ([1]; H. pylori KA3, disk (2 mg)): 16 mm | Inhibition zone ([1]; H. pylori KA4, disk (2 mg)): 15 mm | Inhibition zone ([1]; H. pylori KA5, disk (2 mg)): 15 mm | Inhibition zone ([1]; H. pylori KA6, disk (2 mg)): 17 mm | Inhibition zone ([1]; H. pylori KA7, disk (2 mg)): 19 mm | susceptibility by disc diffusion (in words) [1]: sensitive

CC[C@H]1OC(=O)[C@H](C)[C@@H](O[C@H]2C[C@@](C)(OC)[C@@H](O)[C@H](C)O2)[C@H](C)[C@@H](O[C@@H]2O[C@H](C)C[C@H](N(C)C)[C@H]2O)[C@](C)(O)C[C@@H](C)C(=O)[C@H](C)[C@@H](O)[C@]1(C)O [Erythromycin, erythromycin]
Inhibition zone ([1]; H. pylori ATCC 43504, disk (15 μg)): 29 mm | Inhibition zone ([1]; H. pylori KA1, disk (15 μg)): 21 mm | Inhibition zone ([1]; H. pylori KA2, disk (15 μg)): 22 mm | Inhibition zone ([1]; H. pylori KA3, disk (15 μg)): 24 mm | Inhibition zone ([1]; H. pylori KA4, disk (15 μg)): 23 mm | Inhibition zone ([1]; H. pylori KA5, disk (15 μg)): 21 mm | Inhibition zone ([1]; H. pylori KA6, disk (15 μg)): 25 mm | Inhibition zone ([1]; H. pylori KA7, disk (15 μg)): 24 mm | susceptibility by disc diffusion (in words) [1]: sensitive

CNC(=C[N+](=O)[O-])NCCSCc1ccc(CN(C)C)o1 [Ranitidine, ranitidine, reference compound]
% protection (of control ulcer) ([4]; oral 100 mg/kg): 45.05% | score (lesion score 0-5) ([4]; oral 100 mg/kg): 2.2 | no of ulcers ([4]; oral 100 mg/kg, mean, n=6): 6.9*** | ulcer index ([4]; oral 100 mg/kg, mean, n=6): 6.0* mm
